These results are taken from patent US20250122219A1 (priority 2023, published 2025).

Read-outs that look alike come from different tables or passages of the source.

The subject of one series is HIV-1 (IIIB). The series is described as follows: Antiviral assay in MT-4 cells. Type of series: cell-based. In outline: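 Read-out: CellTiter-Glo luminescence after 5 days at 37 °C, reflecting survival of MT-4 cells infected with HIV-1 IIIB (1:250 fresh stock dilution) versus mock-infected. Compounds serially diluted into RPMI with 10% FBS; AZT at 5 μM served as positive control.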

A short description of series [1]: Cytotoxicity assay in MT-4 cells. The conditions noted are these: human; uninfected MT-4 cells, 5 days incubation, Cell Titer Glo; read-out: MT4 CC50. The class given is cell-based. The gist of the method: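 Viability read by Cell Titer Glo luminescence after 5 days at 37 °C. MT-4 cells, not infected, in complete RPMI (10% FBS), received compound dilution series. Base cytotoxicity set with […] puromycin.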
For orientation: ATP-based viability assays read luminescence as a measure of living cells.

The mark [2] stands for this setting: Human immunodeficiency virus 1, MT4, 120 h, HIV-1 IIIB in MT-4 cells, 5 days incubation, Cell Titer Glo, read-out: MT4 EC50.

One may read the EC50 as the concentration giving half of the maximal effect. In general, CC50 refers to the concentration that lowers cell viability or growth by half. For the compound `CC1=NO[C@@]2(CC[C@H](C)N3C[C@H]2n2cc(C(=O)NCc4ccc(F)cc4F)c(=O)c(OC(=O)CCCCCCCCCCCCCCCCC(=O)O)c2C3=O)C1` [Example 76, 18-(((3′S,5S,7′R)-10′-((2,4-difluorobenzyl)carbamoyl)-3,3′-dimethyl-1′,11′-dioxo-1′,4′,5′,11′-tetrahydro-3′H,4H,7′H-spiro[isoxazole-5,6′-[2,7]methanopyrido[1,2-a][1,4]diazonin]-12′-yl)oxy)-18-oxooctadecanoic acid], the EC50 in the series on HIV-1 (IIIB) (setting [2]) worked out at 0.518 nM. Moreover, the CC50 at 5 days in series [1] turned out to be 46000 nM.

For `COC1=NO[C@@]2(CC[C@H](C)N3C[C@H]2n2cc(C(=O)NCc4ccc(F)cc4F)c(=O)c(OC(=O)CCCCCCCCCCCCCCCCC(=O)O)c2C3=O)C1` [Example 77, 18-(((3′S,5S,7′R)-10′-((2,4-difluorobenzyl)carbamoyl)-3-methoxy-3′-methyl-1′,11′-dioxo-1′,4′,5′,11′-tetrahydro-3′H,4H,7′H-spiro[isoxazole-5,6′-[2,7]methanopyrido[1,2-a][1,4]diazonin]-12′-yl)oxy)-18-oxooctadecanoic acid], the EC50 in the series with HIV-1 (IIIB) (setting [2]) is 0.658 nM. Further, the CC50 at 5 days in series [1] was not below 50000 nM.

Consider `COC(=O)N[C@H](C(=O)Oc1c2n(cc(C(=O)NCc3ccc(F)cc3F)c1=O)[C@@H]1CN(C2=O)[C@@H](C)CC[C@]12CC(OC)=NO2)C(C)C` [Example 80], for which, in the series with HIV-1 (IIIB) (setting [2]), the concentration giving a half-maximal response (EC50) turned out to be 1.3 nM. In addition, the CC50 at 5 days in series [1] amounted to 19800 nM.

`COC(=O)N[C@H](C(=O)Oc1c2n(cc(C(=O)NCc3ccc(F)cc3F)c1=O)[C@@H]1CN(C2=O)[C@@H](C)CC[C@]12CC(C)=NO2)C(C)C` [Example 81]: the EC50 in the series with HIV-1 (IIIB) (setting [2]) was 1.44 nM. Further, the CC50 at 5 days in series [1] came to 18100 nM.

Regarding `COC1=NO[C@@]2(CC[C@H](C)N3C[C@H]2n2cc(C(=O)NCc4ccc(F)cc4F)c(=O)c(OCOC(=O)CCC(C)C)c2C3=O)C1` [Example 82, (((3′S,5S,7′R)-10′-((2,4-difluorobenzyl)carbamoyl)-3-methoxy-3′-methyl-1′,11′-dioxo-1′,4′,5′,11′-tetrahydro-3′H,4H,7′H-spiro[isoxazole-5,6′-[2,7]methanopyrido[1,2-a][1,4]diazonin]-12′-yl)oxy)methyl 4-methylpentanoate], in the series on HIV-1 (IIIB) (Human immunodeficiency virus 1, IIIB, MT4, 120 h, read-out: MT4 EC50 (nM)), the EC50 is 2.52 nM. Also, the CC50 at 5 days in series [1] came to 17300 nM.

As to `COC1=NO[C@@]2(CC[C@H](C)N3C[C@H]2n2cc(C(=O)NCc4ccc(F)cc4F)c(=O)c(OCOC(C)=O)c2C3=O)C1` [Example 83, (((3′S,5S,7′R)-10′-((2,4-difluorobenzyl)carbamoyl)-3-methoxy-3′-methyl-1′,11′-dioxo-1′,4′,5′,11′-tetrahydro-3′H,4H,7′H-spiro[isoxazole-5,6′-[2,7]methanopyrido[1,2-a][1,4]diazonin]-12′-yl)oxy)methyl acetate], the EC50 in the series with HIV-1 (IIIB) (setting [2]) came out at 2.69 nM. Further, in series [1], the CC50 at 5 days amounted to 16000 nM.

As for `CC(=O)OCOc1c2n(cc(C(=O)NCc3ccc(F)cc3F)c1=O)[C@@H]1CN(C2=O)[C@@H](C)CC[C@]12CC(C)=NO2` [Example 84, (((3′S,5S,7′R)-10′-((2,4-difluorobenzyl)carbamoyl)-3,3′-dimethyl-1′,11′-dioxo-1′,4′,5′,11′-tetrahydro-3′H,4H,7′H-spiro[isoxazole-5,6′-[2,7]methanopyrido[1,2-a][1,4]diazonin]-12′-yl)oxy)methyl acetate], the EC50 with HIV-1 (IIIB) (setting [2]) was 3.29 nM. Also, in series [1], the CC50 at 5 days came out at 19900 nM.

Regarding `CCC(=O)OCOc1c2n(cc(C(=O)NCc3ccc(F)cc3F)c1=O)[C@@H]1CN(C2=O)[C@@H](C)CC[C@]12CC(OC)=NO2` [Example 85, (((3′S,5S,7′R)-10′-((2,4-difluorobenzyl)carbamoyl)-3-methoxy-3′-methyl-1′,11′-dioxo-1′,4′,5′,11′-tetrahydro-3′H,4H,7′H-spiro[isoxazole-5,6′-[2,7]methanopyrido[1,2-a][1,4]diazonin]-12′-yl)oxy)methyl propionate], the EC50 with HIV-1 (IIIB) (setting [2]) came out at 2.25 nM. For the same compound, the cytotoxic concentration (CC50) at 5 days in series [1] amounted to 28400 nM.

On to `CCC(=O)OCOc1c2n(cc(C(=O)NCc3ccc(F)cc3F)c1=O)[C@@H]1CN(C2=O)[C@@H](C)CC[C@]12CC(C)=NO2` [Example 86, (((3′S,5S,7′R)-10′-((2,4-difluorobenzyl)carbamoyl)-3,3′-dimethyl-1′,11′-dioxo-1′,4′,5′,11′-tetrahydro-3′H,4H,7′H-spiro[isoxazole-5,6′-[2,7]methanopyrido[1,2-a][1,4]diazonin]-12′-yl)oxy)methyl propionate], for which the EC50 with HIV-1 (IIIB) (setting [2]) amounted to 2.53 nM. For the same compound, the CC50 at 5 days in series [1] turned out to be 21000 nM.

In the case of `CCCC(=O)OCOc1c2n(cc(C(=O)NCc3ccc(F)cc3F)c1=O)[C@@H]1CN(C2=O)[C@@H](C)CC[C@]12CC(OC)=NO2` [Example 87, (((3′S,5S,7′R)-10′-((2,4-difluorobenzyl)carbamoyl)-3-methoxy-3′-methyl-1′,11′-dioxo-1′,4′,5′,11′-tetrahydro-3′H,4H,7′H-spiro[isoxazole-5,6′-[2,7]methanopyrido[1,2-a][1,4]diazonin]-12′-yl)oxy)methyl butyrate], the concentration for a half-maximal effect (EC50) with HIV-1 (IIIB) (setting [2]) amounted to 1.8 nM. For the same compound, the CC50 at 5 days in series [1] was 16400 nM.

With `CCCC(=O)OCOc1c2n(cc(C(=O)NCc3ccc(F)cc3F)c1=O)[C@@H]1CN(C2=O)[C@@H](C)CC[C@]12CC(C)=NO2` [Example 88, (((3′S,5S,7′R)-10′-((2,4-difluorobenzyl)carbamoyl)-3,3′-dimethyl-1′,11′-dioxo-1′,4′,5′,11′-tetrahydro-3′H,4H,7′H-spiro[isoxazole-5,6′-[2,7]methanopyrido[1,2-a][1,4]diazonin]-12′-yl)oxy)methyl butyrate], the EC50 in the series with HIV-1 (IIIB) (setting [2]) amounted to 1.78 nM. Moreover, in series [1], the CC50 at 5 days came out at 20400 nM.

Take `CCCCC(=O)OCOc1c2n(cc(C(=O)NCc3ccc(F)cc3F)c1=O)[C@@H]1CN(C2=O)[C@@H](C)CC[C@]12CC(OC)=NO2` [Example 89, (((3′S,5S,7′R)-10′-((2,4-difluorobenzyl)carbamoyl)-3-methoxy-3′-methyl-1′,11′-dioxo-1′,4′,5′,11′-tetrahydro-3′H,4H,7′H-spiro[isoxazole-5,6′-[2,7]methanopyrido[1,2-a][1,4]diazonin]-12′-yl)oxy)methyl pentanoate]: the EC50 in the series with HIV-1 (IIIB) (setting [2]) was 0.2 nM. Further, the 50% cytotoxic concentration (CC50) at 5 days in series [1] worked out at 15800 nM.

Consider `CCCCC(=O)OCOc1c2n(cc(C(=O)NCc3ccc(F)cc3F)c1=O)[C@@H]1CN(C2=O)[C@@H](C)CC[C@]12CC(C)=NO2` [Example 90, (((3′S,5S,7′R)-10′-((2,4-difluorobenzyl)carbamoyl)-3,3′-dimethyl-1′,11′-dioxo-1′,4′,5′,11′-tetrahydro-3′H,4H,7′H-spiro[isoxazole-5,6′-[2,7]methanopyrido[1,2-a][1,4]diazonin]-12′-yl)oxy)methyl pentanoate], for which the EC50 in the series with HIV-1 (IIIB) (setting [2]) was 0.176 nM. For the same compound, the CC50 at 5 days in series [1] came to 18200 nM.

As for `CCCCCC(=O)OCOc1c2n(cc(C(=O)NCc3ccc(F)cc3F)c1=O)[C@@H]1CN(C2=O)[C@@H](C)CC[C@]12CC(OC)=NO2` [Example 91, (((3′S,5S,7′R)-10′-((2,4-difluorobenzyl)carbamoyl)-3-methoxy-3′-methyl-1′,11′-dioxo-1′,4′,5′,11′-tetrahydro-3′H,4H,7′H-spiro[isoxazole-5,6′-[2,7]methanopyrido[1,2-a][1,4]diazonin]-12′-yl)oxy)methyl hexanoate], the EC50 in the series on HIV-1 (IIIB) (setting [2]) was found to be 1.86 nM. In series [1], the CC50 at 5 days was found to be 37300 nM.

`CCCCCC(=O)OCOc1c2n(cc(C(=O)NCc3ccc(F)cc3F)c1=O)[C@@H]1CN(C2=O)[C@@H](C)CC[C@]12CC(C)=NO2` [Example 92, (((3′S,5S,7′R)-10′-((2,4-difluorobenzyl)carbamoyl)-3,3′-dimethyl-1′,11′-dioxo-1′,4′,5′,11′-tetrahydro-3′H,4H,7′H-spiro[isoxazole-5,6′-[2,7]methanopyrido[1,2-a][1,4]diazonin]-12′-yl)oxy)methyl hexanoate]: in the series with HIV-1 (IIIB) (setting [2]), the EC50 stood at 2.14 nM. Moreover, the CC50 at 5 days in series [1] was 21500 nM.

With `CCCCCCC(=O)OCOc1c2n(cc(C(=O)NCc3ccc(F)cc3F)c1=O)[C@@H]1CN(C2=O)[C@@H](C)CC[C@]12CC(OC)=NO2` [Example 93, (((3′S,5S,7′R)-10′-((2,4-difluorobenzyl)carbamoyl)-3-methoxy-3′-methyl-1′,11′-dioxo-1′,4′,5′,11′-tetrahydro-3′H,4H,7′H-spiro[isoxazole-5,6′-[2,7]methanopyrido[1,2-a][1,4]diazonin]-12′-yl)oxy)methyl heptanoate], the EC50 with HIV-1 (IIIB) (setting [2]) came to 2.63 nM. Moreover, in series [1], the CC50 at 5 days was 19500 nM.

In the case of `CCCCCCC(=O)OCOc1c2n(cc(C(=O)NCc3ccc(F)cc3F)c1=O)[C@@H]1CN(C2=O)[C@@H](C)CC[C@]12CC(C)=NO2` [Example 94, (((3′S,5S,7′R)-10′-((2,4-difluorobenzyl)carbamoyl)-3,3′-dimethyl-1′,11′-dioxo-1′,4′,5′,11′-tetrahydro-3′H,4H,7′H-spiro[isoxazole-5,6′-[2,7]methanopyrido[1,2-a][1,4]diazonin]-12′-yl)oxy)methyl heptanoate], in the series on HIV-1 (IIIB) (setting [2]), the 50% effective concentration (EC50) was determined as 2.73 nM. Moreover, the CC50 at 5 days in series [1] turned out to be 17600 nM.

With `CCCCCCCC(=O)OCOc1c2n(cc(C(=O)NCc3ccc(F)cc3F)c1=O)[C@@H]1CN(C2=O)[C@@H](C)CC[C@]12CC(OC)=NO2` [Example 95, (((3′S,5S,7′R)-10′-((2,4-difluorobenzyl)carbamoyl)-3-methoxy-3′-methyl-1′,11′-dioxo-1′,4′,5′,11′-tetrahydro-3′H,4H,7′H-spiro[isoxazole-5,6′-[2,7]methanopyrido[1,2-a][1,4]diazonin]-12′-yl)oxy)methyl octanoate], in the series with HIV-1 (IIIB) (setting [2]), the EC50 came to 0.998 nM. Further, the CC50 at 5 days in series [1] was not below 50000 nM.
